Like-named read-outs stand apart in the source and are kept apart here.
Experiments:
[1] = system: jejunal mucosal 5-HT in mice (C57 BL6); experiment: Intestinal 5-HT depletion assay (Example B, single 150 mg/kg oral dose); format: in vivo, mouse; settings: one day after oral administration of a single 150 mg/kg dose, P-value class (ANOVA)
Description: The efficacy of the TPH1 inhibitors of the invention was assessed for the ability to decrease intestinal serotonin concentration in mice. Mice (C57 BL6) were administered a single 150 mg/kg dose of test article by oral gavage. Each animal was euthanized by exsanguination under isoflurane anesthesia. Jejunal intestinal mucosa was isolated and homogenized in 300 μL of a buffer containing 0.3M trichloroacetic acid, 0.1M sodium acetate, 10 mM EDTA, 20 mM sodium bisulfate and 50 mM ascorbic acid. Following centrifugation the 5-HT levels in the supernatants were measured by HPLC. The remaining mucosal pellet was solubilized overnight at 37° C. in a 0.1% sodium dodecyl sulfate buffer in 0.1N NaOH followed by determination of protein concentrations using a BCA protein assay (Pierce, Rockford, Ill. 5-HT levels were normalized to protein and data were expressed as mean percent reduction of mucosal 5-HT levels relative to vehicle control SEM (percent 5-HT reduction). All animal studies were carried out with protocols approved by the Institutional Animal Care and Use Committee.
P-values, indicating statistical significance of the data (ANOVA) are provided in the table: * refers to P<0.05, ** refers to P<0.01, *** refers to P<0.005, and refers to P<0.0005.

[2] = biological target: T1, Recombinant human TPH1 (MBP tagged) (Homo sapiens, UniProt P17752); experiment: TPH1 in vitro inhibition assay (kinetic fluorescence); format: biochemical
T1 construct: cloning full length human TPH1 cDNA in to a bacterial pMAL-c5E expression vector; made in house; host or cells: E. coli BL21 (DE3)
T1 sequence (P17752 1-444): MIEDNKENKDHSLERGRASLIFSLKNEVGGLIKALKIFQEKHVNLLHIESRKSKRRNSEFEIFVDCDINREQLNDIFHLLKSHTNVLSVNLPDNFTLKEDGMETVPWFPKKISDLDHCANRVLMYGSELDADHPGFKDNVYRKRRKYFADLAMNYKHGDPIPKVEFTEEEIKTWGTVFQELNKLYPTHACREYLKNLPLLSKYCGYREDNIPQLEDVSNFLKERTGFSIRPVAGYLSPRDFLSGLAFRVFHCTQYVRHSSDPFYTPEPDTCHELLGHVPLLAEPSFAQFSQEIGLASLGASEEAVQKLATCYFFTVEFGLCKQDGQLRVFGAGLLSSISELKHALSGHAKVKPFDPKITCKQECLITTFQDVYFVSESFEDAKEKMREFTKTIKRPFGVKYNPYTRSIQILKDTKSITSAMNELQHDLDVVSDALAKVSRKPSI
How it was run: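 Final mix: 15 nM MBP-TPH1, 30 μM Trp, 36 μM 6-methyltetrahydropterin, 25 μM ferrous ammonium sulfate, 50 mM MES pH 7.1, 1% DMSO, room temperature.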

[3] = read-out: TPH1 Range (TPH1 inhibition IC50)
[4] = TPH1 Range (TPH1 inhibition IC50)

Compound | IC50 [2, 3] | Efficacy (statistical significance of reduction of mucosal 5-HT concentrations relative to vehicle) [1] | also measured
CCCOC(=O)[C@@H]1CC2(CCN(c3cc(O[C@H](c4ccc(Cl)cc4-n4ccc(C)n4)C(F)(F)F)nc(N)n3)CC2)CN1 [Example 64e, (S)-propyl 8-(2-amino-6-((R)-1-(4-chloro-2-(3-methyl-1H-pyrazol-1-yl)phenyl)-2,2,2-trifluoroethoxy)pyrimidin-4-yl)-2,8-diazaspiro[4.5]decane-3-carboxylate] | – | **** (and refers to P<0.0005) | –
Cc1ccc([C@@H](Oc2cc(N3CCC4(CC3)CN[C@H](C(=O)O)C4)nc(N)n2)C(F)(F)F)c(-n2ccc(C)n2)c1 [Example 10h, (S)-8-(2-amino-6-((R)-2,2,2-trifluoro-1-(4-methyl-2-(3-methyl-1H-pyrazol-1-yl)phenyl)ethoxy)pyrimidin-4-yl)-2,8-diazaspiro[4.5]decane-3-carboxylic acid] | – | *** (*** refers to P<0.005) | –
Nc1nc(O[C@H](c2ccc(Cl)cc2-c2ccccc2)C(F)(F)F)cc(N2CCC3(CC2)CN[C@H](C(=O)O)C3)n1 [Example 34r, (S)-8-(2-amino-6-((R)-1-(5-chloro-[1,1′-biphenyl]-2-yl)-2,2,2-trifluoroethoxy)pyrimidin-4-yl)-2,8-diazaspiro[4.5]decane-3-carboxylic acid] | – | *** (*** refers to P<0.005) | –
CCOC(=O)c1ccccc1-c1ccc(-n2ccc(C)n2)c([C@@H](Oc2cc(N3CCC4(CC3)CN[C@H](C(=O)OCC)C4)nc(N)n2)C(F)(F)F)c1 [Example 63da, (S)-ethyl 8-(2-amino-6-((R)-1-(2′-(ethoxycarbonyl)-4-(3-methyl-1H-pyrazol-1-yl)-[1,1′-biphenyl]-3-yl)-2,2,2-trifluoroethoxy)pyrimidin-4-yl)-2,8-diazaspiro[4.5]decane-3-carboxylate] | – | *** (*** refers to P<0.005) | –
Cc1ccn(-c2cc(Cl)ccc2[C@@H](Oc2cc(N3CCC4(CC3)CN[C@H](C(=O)OCC(C)(C)C)C4)nc(N)n2)C(F)(F)F)n1 [Example 64f, (S)-neopentyl 8-(2-amino-6-((R)-1-(4-chloro-2-(3-methyl-1H-pyrazol-1-yl)phenyl)-2,2,2-trifluoroethoxy)pyrimidin-4-yl)-2,8-diazaspiro[4.5]decane-3-carboxylate] | – | **** (and refers to P<0.0005) | –
(S)-2-(pivaloyloxy)ethyl 8-(2-amino-6- ((R)-1-(4-chloro-2-(3-methyl-1H-pyrazol- 1-yl)phenyl)-2,2,2- trifluoroethoxy)pyrimidin-4-yl)-2,8- diazaspiro[4.5]decane-3-carboxylate [Example 66d] | – | **** (and refers to P<0.0005) | –
CCOC(=O)c1ccc([C@@H](Oc2cc(N3CCC4(CC3)CN[C@H](C(=O)OCC)C4)nc(N)n2)C(F)(F)F)c(-n2ccc(C)n2)c1 [Example 63bi, (S)-ethyl 8-(2-amino-6-((R)-1-(4-(ethoxycarbonyl)-2-(3-methyl-1H-pyrazol-1-yl)phenyl)-2,2,2-trifluoroethoxy)pyrimidin-4-yl)-2,8-diazaspiro[4.5]decane-3-carboxylate] | – | ** (** refers to P<0.01) | –
CCOC(=O)C1CC2(CCN(c3cc(O[C@H](c4ccc(Cl)cc4-n4ccc(C)n4)C(F)(F)F)nc(N)n3)CC2)CN1 (stereo partly drawn) [Example 63ay, ethyl 8-(2-amino-6-((R)-1-(4-chloro-2-(3-methyl-1H-pyrazol-1-yl)phenyl)-2,2,2-trifluoroethoxy)pyrimidin-4-yl)-2,8-diazaspiro[4.5]decane-3-carboxylate] | – | *** (*** refers to P<0.005) | –
Cc1ccc(-c2cc(Cl)ccc2[C@@H](Oc2cc(N3CCC4(CC3)CN[C@H](C(=O)O)C4)nc(N)n2)C(F)(F)F)cc1C [Example 34ay, (S)-8-(2-amino-6-((R)-1-(5-chloro-3′,4′-dimethyl-[1,1′-biphenyl]-2-yl)-2,2,2-trifluoroethoxy)pyrimidin-4-yl)-2,8-diazaspiro[4.5]decane-3-carboxylic acid] | 0.05 to 0.3 µM | – | –
COc1ncc(-c2ccc([C@@H](Oc3cc(N4CCC5(CC4)CN[C@H](C(=O)O)C5)nc(C)n3)C(F)(F)F)c(-n3ccc(C)n3)c2)cn1 [Example 29g, (S)-8-(2-methyl-6-((R)-2,2,2-trifluoro-1-(4-(2-methoxypyrimidin-5-yl)-2-(3-methyl-1H-pyrazol-1-yl)phenyl)ethoxy)pyrimidin-4-yl)-2,8-diazaspiro[4.5]decane-3-carboxylic acid] | < 0.05 µM | – | –
Cc1ccn(-c2cc(-c3ccc(S(C)(=O)=O)cc3)ccc2[C@@H](Oc2cc(N3CCC4(CC3)CN[C@H](C(=O)O)C4)nc(C)n2)C(F)(F)F)n1 [Example 29b, (S)-8-(2-methyl-6-((R)-2,2,2-trifluoro-1-(3-(3-methyl-1H-pyrazol-1-yl)-4′-(methylsulfonyl)-[1,1′-biphenyl]-4-yl)ethoxy)pyrimidin-4-yl)-2,8-diazaspiro[4.5]decane-3-carboxylic acid] | < 0.05 µM | – | –
CCOc1ccc(-c2ccc([C@@H](Oc3cc(N4CCC5(CC4)CN[C@H](C(=O)O)C5)nc(N)n3)C(F)(F)F)c(-n3ccc(C)n3)c2)cc1F [Example 1bn, (S)-8-(2-amino-6-((R)-1-(4′-ethoxy-3′-fluoro-3-(3-methyl-1H-pyrazol-1-yl)-[1,1′-biphenyl]-4-yl)-2,2,2-trifluoroethoxy)pyrimidin-4-yl)-2,8-diazaspiro[4.5]decane-3-carboxylic acid] | < 0.05 µM | – | –
Cc1cccc(-c2cc(Cl)ccc2[C@@H](Oc2cc(N3CCC4(CC3)CN[C@H](C(=O)O)C4)nc(N)n2)C(F)(F)F)c1 [Example 34b, (S)-8-(2-amino-6-((R)-1-(5-chloro-3′-methyl-[1,1′-biphenyl]-2-yl)-2,2,2-trifluoroethoxy)pyrimidin-4-yl)-2,8-diazaspiro[4.5]decane-3-carboxylic acid] | – | – | IC50 [2, 4]: < 0.05 µM
Cc1ncc(-c2cc(Cl)ccc2[C@@H](Oc2cc(N3CCC4(CC3)CN[C@H](C(=O)O)C4)nc(N)n2)C(F)(F)F)s1 [Example 34ci, (S)-8-(2-amino-6-((R)-1-(4-chloro-2-(2-methylthiazol-5-yl)phenyl)-2,2,2-trifluoroethoxy)pyrimidin-4-yl)-2,8-diazaspiro[4.5]decane-3-carboxylic acid] | 0.05 to 0.3 µM | – | –
Cc1ccn(-c2cc(-c3ccc(C(=O)N(C)C)cc3)ccc2[C@@H](Oc2cc(N3CCC4(CC3)CN[C@H](C(=O)O)C4)nc(N)n2)C(F)(F)F)n1 [Example 1ck, (S)-8-(2-amino-6-((R)-1-(4′-(dimethylcarbamoyl)-3-(3-methyl-1H-pyrazol-l-y)-[1,1′-biphenyl]-4-yl)-2,2,2-trifluoroethoxy)pyrimidin-4-yl)-2,8-diazaspiro[4.5]decane-3-carboxylic acid] | < 0.05 µM | – | –
Cc1ccn(-c2cc(-c3ccc(C)c(C)c3)ccc2[C@@H](Oc2cc(N3CCC4(CC3)CN[C@@H](C(=O)O)C4)nc(N)n2)C(F)(F)F)n1 [Example 54m, (R)-8-(2-amino-6-((R)-1-(3′,4′-dimethyl-3-(3-methyl-1H-pyrazol-1-yl)-[1,1′-biphenyl]-4-yl)-2,2,2-trifluoroethoxy)pyrimidin-4-yl)-2,8-diazaspiro[4.5]decane-3-carboxylic acid] | – | – | IC50 [2, 4]: 0.3 to 3 µM

Further lines, with some results ahead:

IC50 [2, 3] | Compound | Efficacy (statistical significance of reduction of mucosal 5-HT concentrations relative to vehicle) [1] | also measured
0.3 to 3 µM | CC(C)c1ccc(-c2ccc([C@@H](Oc3cc(N4CCC5(CC4)CN[C@H](C(=O)O)C5)nc(N)n3)C(F)(F)F)cc2)cc1 [Example 55cj, (S)-8-(2-amino-6-((R)-2,2,2-trifluoro-1-(4′-isopropyl-[1,1′-biphenyl]-4-yl)ethoxy)pyrimidin-4-yl)-2,8-diazaspiro[4.5]decane-3-carboxylic acid] | – | –
0.3 to 3 µM | CC(C)Oc1ccc(-c2ccc([C@@H](Oc3cc(N4CCC5(CC4)CN[C@H](C(=O)O)C5)nc(N)n3)C(F)(F)F)cc2)cc1 [Example 55bv, (S)-8-(2-amino-6-((R)-2,2,2-trifluoro-1-(4′-isopropoxy-[1,1′-biphenyl]-4-yl)ethoxy)pyrimidin-4-yl)-2,8-diazaspiro[4.5]decane-3-carboxylic acid] | – | –

Reference: patent US11759462B2, “Spirocyclic compounds as tryptophan hydroxylase inhibitors” (priority 2013, dated 2023)
